# From publication PMC6547681 (Nature Communications, 2019)
# Experiments:
# [1] = test system: KMS-12-PE cells expressing BCL-2 WT; assay: CellTiter-Glo cell viability, KMS-12-PE cells overexpressing BCL-2 WT; details: read-out: S55746 LC50, KMS-12-PE overexpressing BCL-2 WT, 24 h, mean ± SD, n = 3
# Description: KMS-12-PE (sourced from DSMZ in 2013; Cat#ACC606) were cultured with HTRPMI with 10% fetal bovine serum. Early passages (P5-P7) after purchase were cryopreserved and thawed for the experiments. Cells beyond passage 15 were not used. Monthly tests for mycoplasma were consistently negative (MycoAlert mycoplasma detection kit; Lonza, GA, USA).
# Cell viability 24 h after treatment was then determined using the CellTiter-Glo assay (Promega, Cat#G9241). […] Experiments were performed on three separate occasions; the data is shown as the means ± SD of those three independent experiments.
# [2] = biological target: BCL-2 G101V/E152A double mutant (Homo sapiens, UniProt P10415, E152A/G101V); assay: Steady-state competition SPR against immobilised BIMBH3 peptide, BCL-2 G101V/E152A double mutant; format: binding
# Chain of BCL-2 G101V/E152A double mutant (P10415 with tags, fused parts or gaps G101V/E152A): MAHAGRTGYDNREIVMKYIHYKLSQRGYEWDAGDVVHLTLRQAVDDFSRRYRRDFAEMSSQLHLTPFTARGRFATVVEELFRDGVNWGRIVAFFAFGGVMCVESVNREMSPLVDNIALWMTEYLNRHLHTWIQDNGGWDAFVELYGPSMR
# Description: SPR experiments were performed as previously described. […] The lowest concentrations used in direct binding experiments were 1 nM for BIAcore 4000 and 0.1 nM for BIAcore S200 instruments, concentrations below these were below the sensitivity thresholds for the instruments. […] Direct binding experiments were fitted to a 1:1 binding site kinetic model, fitting on and off rates, in BIAevaluation software. For competition experiments steady-state responses were determined in BIAevaluation software according to the software defaults in affinity evaluation mode averaging responses for 5 sec. […] All affinity measurements were performed in at least two independent experiments using independent protein preparations.
compound,measurement,setting,value
O=C(c1cc(-c2cc3c(cc2C(=O)N2Cc4ccccc4C[C@H]2CN2CCOCC2)OCO3)n2c1CCCC2)N(c1ccccc1)c1ccc(O)cc1 [S55746],CC50,[1],320 ± 150 nM
same,Raw data values in Figure 3h (SPR response),"[2]; S55746 concentration 20, BCL-2 concentration 10 nM, independent experiment 1",30.4614
same,Raw data values in Figure 3h (SPR response),"[2]; S55746 concentration 20, BCL-2 concentration 10 nM, independent experiment 2",6.021
same,Raw data values in Figure 3h (SPR response),"[2]; S55746 concentration 20, BCL-2 concentration 20 nM, independent experiment 1",65.5037
same,Raw data values in Figure 3h (SPR response),"[2]; S55746 concentration 20, BCL-2 concentration 20 nM, independent experiment 2",18.8646
same,Raw data values in Figure 3h (SPR response),"[2]; S55746 concentration 20, BCL-2 concentration 30 nM, independent experiment 1",76.9824
same,Raw data values in Figure 3h (SPR response),"[2]; S55746 concentration 20, BCL-2 concentration 30 nM, independent experiment 2",27.9038
same,Raw data values in Figure 3h (SPR response),"[2]; S55746 concentration 20, BCL-2 concentration 40 nM, independent experiment 1",81.6304
same,Raw data values in Figure 3h (SPR response),"[2]; S55746 concentration 20, BCL-2 concentration 40 nM, independent experiment 2",34.3045
same,Raw data values in Figure 3h (SPR response),"[2]; S55746 concentration 20, BCL-2 concentration 50 nM, independent experiment 1",84.581
same,Raw data values in Figure 3h (SPR response),"[2]; S55746 concentration 20, BCL-2 concentration 50 nM, independent experiment 2",38.4913
same,Raw data values in Figure 3h (SPR response),"[2]; S55746 concentration 20, BCL-2 concentration 60 nM, independent experiment 1",86.8988
same,Raw data values in Figure 3h (SPR response),"[2]; S55746 concentration 20, BCL-2 concentration 60 nM, independent experiment 2",42.4602
same,Raw data values in Figure 3h (SPR response),"[2]; S55746 concentration 20, BCL-2 concentration 70 nM, independent experiment 1",87.9145
same,Raw data values in Figure 3h (SPR response),"[2]; S55746 concentration 20, BCL-2 concentration 70 nM, independent experiment 2",45.435
same,Raw data values in Figure 3h (SPR response),"[2]; S55746 concentration 20, BCL-2 concentration 80 nM, independent experiment 1",88.9424
same,Raw data values in Figure 3h (SPR response),"[2]; S55746 concentration 20, BCL-2 concentration 80 nM, independent experiment 2",47.8619
same,Raw data values in Figure 3h (SPR response),"[2]; S55746 concentration 20, BCL-2 concentration 100 nM, independent experiment 1",90.7371
same,Raw data values in Figure 3h (SPR response),"[2]; S55746 concentration 20, BCL-2 concentration 100 nM, independent experiment 2",52.9424
same,Raw data values in Figure 3h (SPR response),"[2]; S55746 concentration 20, BCL-2 concentration 150 nM, independent experiment 1",92.2147
same,Raw data values in Figure 3h (SPR response),"[2]; S55746 concentration 20, BCL-2 concentration 150 nM, independent experiment 2",60.437
same,Raw data values in Figure 3h (SPR response),"[2]; S55746 concentration 20, BCL-2 concentration 200 nM, independent experiment 1",94.1481
same,Raw data values in Figure 3h (SPR response),"[2]; S55746 concentration 20, BCL-2 concentration 200 nM, independent experiment 2",65.8724
same,Raw data values in Figure 3h (SPR response),"[2]; S55746 concentration 40, BCL-2 concentration 10 nM, independent experiment 1",10.773
same,Raw data values in Figure 3h (SPR response),"[2]; S55746 concentration 40, BCL-2 concentration 10 nM, independent experiment 2",1.948
same,Raw data values in Figure 3h (SPR response),"[2]; S55746 concentration 40, BCL-2 concentration 20 nM, independent experiment 1",28.9257
same,Raw data values in Figure 3h (SPR response),"[2]; S55746 concentration 40, BCL-2 concentration 20 nM, independent experiment 2",5.643
same,Raw data values in Figure 3h (SPR response),"[2]; S55746 concentration 40, BCL-2 concentration 30 nM, independent experiment 1",52.4298
same,Raw data values in Figure 3h (SPR response),"[2]; S55746 concentration 40, BCL-2 concentration 30 nM, independent experiment 2",13.0173
same,Raw data values in Figure 3h (SPR response),"[2]; S55746 concentration 40, BCL-2 concentration 40 nM, independent experiment 1",71.0654
same,Raw data values in Figure 3h (SPR response),"[2]; S55746 concentration 40, BCL-2 concentration 40 nM, independent experiment 2",23.2512
same,Raw data values in Figure 3h (SPR response),"[2]; S55746 concentration 40, BCL-2 concentration 50 nM, independent experiment 1",78.1857
same,Raw data values in Figure 3h (SPR response),"[2]; S55746 concentration 40, BCL-2 concentration 50 nM, independent experiment 2",30.4785
same,Raw data values in Figure 3h (SPR response),"[2]; S55746 concentration 40, BCL-2 concentration 60 nM, independent experiment 1",82.5478
same,Raw data values in Figure 3h (SPR response),"[2]; S55746 concentration 40, BCL-2 concentration 60 nM, independent experiment 2",36.3344
same,Raw data values in Figure 3h (SPR response),"[2]; S55746 concentration 40, BCL-2 concentration 70 nM, independent experiment 1",84.8279
same,Raw data values in Figure 3h (SPR response),"[2]; S55746 concentration 40, BCL-2 concentration 70 nM, independent experiment 2",40.4837
same,Raw data values in Figure 3h (SPR response),"[2]; S55746 concentration 40, BCL-2 concentration 80 nM, independent experiment 1",86.613
same,Raw data values in Figure 3h (SPR response),"[2]; S55746 concentration 40, BCL-2 concentration 80 nM, independent experiment 2",44.3565
same,Raw data values in Figure 3h (SPR response),"[2]; S55746 concentration 40, BCL-2 concentration 100 nM, independent experiment 1",88.6534
same,Raw data values in Figure 3h (SPR response),"[2]; S55746 concentration 40, BCL-2 concentration 100 nM, independent experiment 2",49.9278
same,Raw data values in Figure 3h (SPR response),"[2]; S55746 concentration 40, BCL-2 concentration 150 nM, independent experiment 1",91.2516
same,Raw data values in Figure 3h (SPR response),"[2]; S55746 concentration 40, BCL-2 concentration 150 nM, independent experiment 2",58.1685
same,Raw data values in Figure 3h (SPR response),"[2]; S55746 concentration 40, BCL-2 concentration 200 nM, independent experiment 1",92.8828
same,Raw data values in Figure 3h (SPR response),"[2]; S55746 concentration 40, BCL-2 concentration 200 nM, independent experiment 2",64.0843
same,Raw data values in Figure 3h (SPR response),"[2]; S55746 concentration 60, BCL-2 concentration 10 nM, independent experiment 1",8.7572
same,Raw data values in Figure 3h (SPR response),"[2]; S55746 concentration 60, BCL-2 concentration 10 nM, independent experiment 2",1.402
same,Raw data values in Figure 3h (SPR response),"[2]; S55746 concentration 60, BCL-2 concentration 20 nM, independent experiment 1",17.8604
same,Raw data values in Figure 3h (SPR response),"[2]; S55746 concentration 60, BCL-2 concentration 20 nM, independent experiment 2",2.802
same,Raw data values in Figure 3h (SPR response),"[2]; S55746 concentration 60, BCL-2 concentration 30 nM, independent experiment 1",29.7852
same,Raw data values in Figure 3h (SPR response),"[2]; S55746 concentration 60, BCL-2 concentration 30 nM, independent experiment 2",5.592
same,Raw data values in Figure 3h (SPR response),"[2]; S55746 concentration 60, BCL-2 concentration 40 nM, independent experiment 1",46.113
same,Raw data values in Figure 3h (SPR response),"[2]; S55746 concentration 60, BCL-2 concentration 40 nM, independent experiment 2",9.958
same,Raw data values in Figure 3h (SPR response),"[2]; S55746 concentration 60, BCL-2 concentration 50 nM, independent experiment 1",65.5161
same,Raw data values in Figure 3h (SPR response),"[2]; S55746 concentration 60, BCL-2 concentration 50 nM, independent experiment 2",18.5156
same,Raw data values in Figure 3h (SPR response),"[2]; S55746 concentration 60, BCL-2 concentration 60 nM, independent experiment 1",78.402
same,Raw data values in Figure 3h (SPR response),"[2]; S55746 concentration 60, BCL-2 concentration 60 nM, independent experiment 2",29.1548
same,Raw data values in Figure 3h (SPR response),"[2]; S55746 concentration 60, BCL-2 concentration 70 nM, independent experiment 1",82.48
same,Raw data values in Figure 3h (SPR response),"[2]; S55746 concentration 60, BCL-2 concentration 70 nM, independent experiment 2",34.7085
same,Raw data values in Figure 3h (SPR response),"[2]; S55746 concentration 60, BCL-2 concentration 80 nM, independent experiment 1",84.2763
same,Raw data values in Figure 3h (SPR response),"[2]; S55746 concentration 60, BCL-2 concentration 80 nM, independent experiment 2",38.0757
same,Raw data values in Figure 3h (SPR response),"[2]; S55746 concentration 60, BCL-2 concentration 100 nM, independent experiment 1",87.9314
same,Raw data values in Figure 3h (SPR response),"[2]; S55746 concentration 60, BCL-2 concentration 100 nM, independent experiment 2",45.7651
same,Raw data values in Figure 3h (SPR response),"[2]; S55746 concentration 60, BCL-2 concentration 150 nM, independent experiment 1",91.7815
same,Raw data values in Figure 3h (SPR response),"[2]; S55746 concentration 60, BCL-2 concentration 150 nM, independent experiment 2",56.7196
same,Raw data values in Figure 3h (SPR response),"[2]; S55746 concentration 60, BCL-2 concentration 200 nM, independent experiment 1",93.0262
same,Raw data values in Figure 3h (SPR response),"[2]; S55746 concentration 60, BCL-2 concentration 200 nM, independent experiment 2",63.1726
